Results: patent US11673894B2, “Imidazopyrimidines and triazolopyrimidines as A2A / A2B inhibitors” (Incyte Corporation, priority 2018, dated 2023)

Key:
[1] = molecular target: Adenosine A2A receptor (Homo sapiens (Human), UniProt P29274); assay: A2A Tag-lite HTRF Assay; conditions: Tag-lite Adenosine A2A labeled cells; A2A Receptor Red antagonist fluorescent ligand 12.5 nM; one-site competitive binding model; read-out: A2A_Ki
Description: The final concentration of DMSO was 1%.

[2] = molecular target: human adenosine A2B receptor (Homo sapiens (Human), UniProt P29275); assay: Adenosine A2B Receptor Cyclic AMP GS Assay; assay type: cell-based; conditions: HEK-293 cells expressing human A2B receptor; agonist NECA at 12 nM; cAMP accumulation (FRET); read-out: A2B_cAMP_EC50
Sequence of human adenosine A2B receptor (P29275 whole entry): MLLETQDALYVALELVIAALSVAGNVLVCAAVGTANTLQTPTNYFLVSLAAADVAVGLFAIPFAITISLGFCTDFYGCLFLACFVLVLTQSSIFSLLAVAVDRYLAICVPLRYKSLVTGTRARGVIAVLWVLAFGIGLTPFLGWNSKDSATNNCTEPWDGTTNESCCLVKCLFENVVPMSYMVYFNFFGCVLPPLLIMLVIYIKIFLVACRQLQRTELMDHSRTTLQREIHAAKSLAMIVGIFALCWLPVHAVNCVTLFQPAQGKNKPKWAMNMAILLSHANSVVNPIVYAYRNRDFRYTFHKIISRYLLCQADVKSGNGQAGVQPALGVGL
In short: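 HEK-293 cells stably expressing human A2B receptor were pretreated 30 min at room temperature with compound, then stimulated with 12 nM NECA for 60 min. cAMP accumulation was measured by HTRF (665/620 ratio). Values were fitted from percent of control versus log concentration.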

Sequence of Adenosine A2A receptor (P29274 whole entry): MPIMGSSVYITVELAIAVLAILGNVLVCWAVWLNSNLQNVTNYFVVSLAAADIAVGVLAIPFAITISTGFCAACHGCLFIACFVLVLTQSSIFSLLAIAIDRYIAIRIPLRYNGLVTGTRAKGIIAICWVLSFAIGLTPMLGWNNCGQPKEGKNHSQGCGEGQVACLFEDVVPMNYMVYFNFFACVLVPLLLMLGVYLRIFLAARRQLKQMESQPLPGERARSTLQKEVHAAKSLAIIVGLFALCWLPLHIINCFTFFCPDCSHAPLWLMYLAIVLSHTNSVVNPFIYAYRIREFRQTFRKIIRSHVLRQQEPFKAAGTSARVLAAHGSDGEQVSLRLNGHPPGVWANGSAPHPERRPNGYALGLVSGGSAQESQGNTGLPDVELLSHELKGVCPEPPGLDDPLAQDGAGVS

Compound	Ki [1] [nM]	EC50 [2] [nM]
CCn1nncc1-c1c(-c2cccc(C#N)c2)nc(N)n2nc(Cc3ccccn3)nc12 [Example 83, 3-(5-Amino-8-(1-ethyl-1H-1,2,3-triazol-5-yl)-2-(pyridin-2-ylmethyl)-[1,2,4]triazolo[1,5-c]pyrimidin-7-yl)benzonitrile]	< 10	10 to 100
CCNC(=O)c1cn2c(N)nc(-c3cccc(C#N)c3)c(-c3ccncc3)c2n1 [Example 26, 5-Amino-7-(3-cyanophenyl)-N-ethyl-8-(pyridin-4-yl)imidazo[1,2-c]pyrimidine-2-carboxamide]	< 10	< 10
CCn1nccc1-c1c(-c2cccc(C#N)c2)nc(N)n2nc(Cc3noc4ccccc34)nc12 [Example 55, 3-(5-Amino-2-(benzo[d]isoxazol-3-ylmethyl)-8-(1-ethyl-1H-pyrazol-5-yl)-[1,2,4]triazolo[1,5-c]pyrimidin-7-yl)benzonitrile]	< 10	< 10
CCNC(=O)c1nc2c(-c3ccnc(OC)c3)c(-c3cccc(C#N)c3)nc(N)n2c1C [Example 18, 5-Amino-7-(3-cyanophenyl)-N-ethyl-8-(2-methoxypyridin-4-yl)-3-methylimidazo[1,2-c]pyrimidine-2-carboxamide]	10 to 100	10 to 100
CCNC(=O)c1nc2c(-c3cc(C)nc(C)c3)c(-c3ccccc3)nc(N)n2c1C#N [Example 21, 5-Amino-3-cyano-8-(2,6-dimethylpyridin-4-yl)-N-ethyl-7-phenylimidazo[1,2-c]pyrimidine-2-carboxamide]	< 10	> 1000
CCNC(=O)c1cn2c(N)nc(-c3cccc(C#N)c3)c(-c3cn[nH]c3C)c2n1 [Example 34, 5-Amino-7-(3-cyanophenyl)-N-ethyl-8-(5-methyl-1H-pyrazol-4-yl)imidazo[1,2-c]pyrimidine-2-carboxamide]	< 10	< 10
Cc1cccc(COc2nc3c(-c4ccncn4)c(-c4cccc(C#N)c4)nc(N)n3n2)n1 [Example 95, 3-(5-Amino-2-((6-methylpyridin-2-yl)methoxy)-8-(pyrimidin-4-yl)-[1,2,4]triazolo[1,5-c]pyrimidin-7-yl)benzonitrile]	< 10	< 10
COc1cccc(-c2nc(N)n3ccnc3c2-c2ccncc2)c1 [Example 4, 7-(3-Methoxyphenyl)-8-(pyridin-4-yl)imidazo[1,2-c]pyrimidin-5-amine]	< 10	< 10
N#Cc1cccc(-c2nc(N)n3nc(Cc4ccccn4)nc3c2-c2ccncn2)c1 [Example 41, 3-(5-Amino-2-(pyridin-2-ylmethyl)-8-(pyrimidin-4-yl)-[1,2,4]triazolo[1,5-c]pyrimidin-7-yl)benzonitrile]	< 10	< 10
CN(Cc1cccc(F)c1Cc1nc2c(-c3ccncn3)c(-c3cccc(C#N)c3)nc(N)n2n1)S(C)(=O)=O [Example 74, N-(2-((5-Amino-7-(3-cyanophenyl)-8-(pyrimidin-4-yl)-[1,2,4]triazolo[1,5-c]pyrimidin-2-yl)methyl)-3-fluorobenzyl)-N-methylmethanesulfonamide]	< 10	< 10
CCNC(=O)c1cn2c(N)nc(-c3ccccc3)c(C3=CCN(C(N)=O)CC3)c2n1 [Example 15, 5-Amino-8-(1-carbamoyl-1,2,3,6-tetrahydropyridin-4-yl)-N-ethyl-7-phenylimidazo[1,2-c]pyrimidine-2-carboxamide]	< 10	100 to 1000
Cc1cccc(Cc2nc3c(-c4ccncn4)c(-c4cccc(C#N)c4)nc(N)n3n2)n1 [Example 51, 3-(5-Amino-2-((6-methylpyridin-2-yl)methyl)-8-(pyrimidin-4-yl)-[1,2,4]triazolo[1,5-c]pyrimidin-7-yl)benzonitrile]	< 10	10 to 100
CCNC(=O)c1cn2c(N)nc(-c3cccc(C#N)c3)c(-c3ccncc3OC)c2n1 [Example 30, 5-Amino-7-(3-cyanophenyl)-N-ethyl-8-(3-methoxypyridin-4-yl)imidazo[1,2-c]pyrimidine-2-carboxamide]	< 10	< 10
